In ChEMBL document CHEMBL1201862, “PubChem BioAssay data set” (2004):
Blank lines part the entries; values can stand above or below the compound they belong to. Calls of active or inactive are those of the source.

How the values were obtained:
[1] = target: T1, Microphthalmia-associated transcription factor (Homo sapiens, UniProt O75030); assay: reducers of TRPM1 reporter luminescence, concentration series – cell-based, SK-MEL-5, cherry-picked, set 3, MITF inhibitor project, dose response (AID 493073); type: functional;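 also: SK-MEL-5 melanoma cells with luciferase driven by the MITF target TRPM1 promoter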
T1 sequence (O75030 whole entry): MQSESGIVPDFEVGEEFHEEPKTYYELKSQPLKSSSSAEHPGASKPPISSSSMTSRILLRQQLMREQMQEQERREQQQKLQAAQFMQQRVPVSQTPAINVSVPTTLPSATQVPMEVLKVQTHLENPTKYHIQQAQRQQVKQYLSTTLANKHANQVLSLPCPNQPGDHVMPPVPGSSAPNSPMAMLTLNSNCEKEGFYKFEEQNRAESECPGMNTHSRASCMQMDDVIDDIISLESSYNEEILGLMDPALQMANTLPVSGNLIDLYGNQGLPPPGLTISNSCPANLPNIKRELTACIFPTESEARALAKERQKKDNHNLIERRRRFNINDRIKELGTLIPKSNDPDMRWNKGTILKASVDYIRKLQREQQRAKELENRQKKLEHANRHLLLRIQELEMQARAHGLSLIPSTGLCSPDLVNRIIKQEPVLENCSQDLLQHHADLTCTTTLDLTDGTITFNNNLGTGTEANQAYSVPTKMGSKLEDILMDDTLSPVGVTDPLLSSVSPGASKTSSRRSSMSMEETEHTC

HEK293 [2] = assay: inhibition of NOD1-driven NF-kB reporter – cell-based, luminescence, uHTS, primary screen (AID 1578); type: functional; details: Homo sapiens
HEK293 [3] = assay: NOD2 signaling inhibitors in MDP-stimulated cells, cell-based, uHTS, luminescence (AID 2001); type: functional; details: Homo sapiens
HEK293 [4] = assay: cells; type: functional, cell-based; details: Homo sapiens
HEK293 [5] = assay: cells; type: functional, cell-based; details: Homo sapiens; remark: listed apart in the source
[6] = target: FAD-linked sulfhydryl oxidase ALR (Homo sapiens, UniProt P55789); assay: ALR-catalysed DTT oxidation blockers – biochemical, H2O2 detection, luminescence, cherry-pick, dose response (AID 493248)
[7] = target: NACHT, LRR and PYD domains-containing protein 1 (Homo sapiens, UniProt Q9C000); assay: NALP1 inhibitors in yeast, dose response, luminescent (AID 488860); type: functional
[8] = target: Nucleotide-binding oligomerization domain-containing protein 2 (Homo sapiens, UniProt Q9HC29); assay: inhibition of NOD2-driven NF-kB reporter – cell-based, luminescence, uHTS, HEK293 (AID 1566); type: functional
[9] = fluconazole-exposed Candida albicans growth modulators – fluorescence, retest, confirmation (AID 2467); type: functional, cell-based
[10] = NIH-3T3 fibroblast cytotoxicity, dose response, cytotoxicity control, cell-based, fluorescence, Alamar Blue, secondary assay (AID 2327); type: functional;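 also: NIH-3T3 mouse fibroblasts cultured with fluconazole at 8 µg/mL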
HEK293 [11] = assay: cells; type: functional, cell-based; details: Homo sapiens; remark: listed apart in the source
Saccharomyces cerevisiae = assay: S. cerevisiae Caspase-1/ASC signal blockers IC50, NALP1 inhibitor project selectivity test (AID 488863); type: functional, organism-based
[12] = target: DNA dC->dU-editing enzyme APOBEC-3A (Homo sapiens, UniProt P31941); assay: A3A deaminase inhibition for selectivity – biochemical, dose response (AID 504722); type: functional
[13] = target: DNA dC->dU-editing enzyme APOBEC-3G (Homo sapiens, UniProt Q9HC16); assay: Dose Response confirmation of small molecule APOBEC3G DNA Deaminase Inhibitors via a fluorescence-based single-stranded DNA deaminase assay. [Related pubchem assays (depositor defined):AID493012, AID493028]; type: functional
[14] = target: T2, E3 ubiquitin-protein ligase XIAP (Homo sapiens, UniProt P98170); assay: small molecules displacing peptide from XIAP – biochemical, IAP family, fluorescence polarization (AID 1018); type: functional
[15] = target: T1, Microphthalmia-associated transcription factor; assay: reducers of TRPM1 reporter luminescence, concentration series – cell-based, SK-MEL-5, cherry-picked, set 4, MITF inhibitor project, dose response (AID 493102); type: functional
[16] = target: T1, Microphthalmia-associated transcription factor; assay: MITF Measured in Cell-Based System Using Plate Reader - 2084-01_Inhibitor_DoseNoFile_CherryPick_Activity_Set2. [Related pubchem assays (depositor defined):AID488944]; type: functional
[17] = target: T2, E3 ubiquitin-protein ligase XIAP; assay: Counter Screen using XIAP-Bir3 for Chemical Antagonists of Bir1/2 domains of IAP-family anti-apoptotic proteins. [Related pubchem assays (depositor defined):AID1018, AID1449, AID1514, AID1638, AID1749, AID1750, AID488957, AID488963]
[18] = target: T3, Mannose-6-phosphate isomerase (Homo sapiens, UniProt P34949); assay: phosphomannose isomerase inhibition – biochemical, fluorescence intensity, confirmation (AID 1535)
T3 sequence (P34949 whole entry): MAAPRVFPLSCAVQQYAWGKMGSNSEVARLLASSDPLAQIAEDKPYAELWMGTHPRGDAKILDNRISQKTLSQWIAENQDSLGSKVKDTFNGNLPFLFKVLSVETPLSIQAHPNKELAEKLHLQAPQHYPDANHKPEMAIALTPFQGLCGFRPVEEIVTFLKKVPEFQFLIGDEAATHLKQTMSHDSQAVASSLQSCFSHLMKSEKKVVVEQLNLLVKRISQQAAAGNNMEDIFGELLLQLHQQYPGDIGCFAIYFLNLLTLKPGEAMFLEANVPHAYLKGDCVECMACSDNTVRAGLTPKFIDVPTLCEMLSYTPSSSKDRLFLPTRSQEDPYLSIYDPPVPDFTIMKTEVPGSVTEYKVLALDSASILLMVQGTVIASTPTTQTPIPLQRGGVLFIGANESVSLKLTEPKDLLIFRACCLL

Leucine aminopeptidase = target: T4, Leucine aminopeptidase (Plasmodium falciparum 3D7, UniProt Q8IL11); assay: P. falciparum M17LAP inhibitors, primary screen, biochemical, fluorogenic H-Leu-NHMec substrate, 1536-well (AID 1619); type: functional
T4 sequence (Q8IL11 whole entry): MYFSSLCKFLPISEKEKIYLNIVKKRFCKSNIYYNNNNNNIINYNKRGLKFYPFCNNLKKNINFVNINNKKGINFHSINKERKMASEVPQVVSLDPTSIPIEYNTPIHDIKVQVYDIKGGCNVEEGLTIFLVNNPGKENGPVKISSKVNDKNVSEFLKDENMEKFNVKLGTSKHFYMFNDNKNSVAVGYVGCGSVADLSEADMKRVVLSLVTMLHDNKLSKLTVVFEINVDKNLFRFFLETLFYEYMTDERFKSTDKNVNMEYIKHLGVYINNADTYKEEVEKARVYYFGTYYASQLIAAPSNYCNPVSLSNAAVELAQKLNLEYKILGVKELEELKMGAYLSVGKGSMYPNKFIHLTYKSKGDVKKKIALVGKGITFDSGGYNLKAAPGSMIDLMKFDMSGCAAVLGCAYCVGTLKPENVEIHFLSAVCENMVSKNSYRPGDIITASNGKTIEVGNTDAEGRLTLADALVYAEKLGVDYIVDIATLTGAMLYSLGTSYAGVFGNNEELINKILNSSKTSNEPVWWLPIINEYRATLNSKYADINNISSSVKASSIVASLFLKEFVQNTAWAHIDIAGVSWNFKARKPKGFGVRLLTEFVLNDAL

[19] = target: Peroxisome proliferator-activated receptor gamma/Nuclear receptor coactivator 1 (Homo sapiens, UniProt P37231); assay: (§1) TR-FRET dose response biochemical High Throughput Screening assay for agonists of the steroid receptor coactivator 1 (SRC-1) recruitment by the peroxisome proliferator-activated receptor gamma (PPAR gamma): non-selective agonists. [Related pubchem assays (depositor defined):AID1300, AID1808, AID504735, AID631]; type: protein assay
Aspartyl aminopeptidase = Aspartyl aminopeptidase (Plasmodium falciparum 3D7, UniProt Q8I2J3); assay: Counterscreen for inhibitors of M1 and M17 aminopeptidases: QFRET-based biochemical high throughput dose response assay for inhibitors of the Plasmodium falciparum M18 Aspartyl Aminopeptidase (PFM18AAP). [Related PubChem assays: 1619 (Screening assay (M17LAP inhibitors).), 1445 (Screening assay (M1AAP inhibitors).)]
[20] = target: Peroxisome proliferator-activated receptor gamma/Nuclear receptor coactivator 3 (Homo sapiens, UniProt P37231); assay: as §1, with “3 (SRC-3)” for “1 (SRC-1)”, “assays: 1301 (Confirmation screen.), 1048 (Primary screen.)]” for “assays (depositor defined):AID1300, AID1808, AID504735, AID631]”; type: functional
Procathepsin L = Procathepsin L (Homo sapiens, UniProt P07711); assay: CTSL1 protease inhibition – biochemical, QFRET, 1536-well, counter-screen for M1/M17 aminopeptidase inhibitor project, dose response (AID 2214)
Phosphomannomutase 2 = Phosphomannomutase 2 (Homo sapiens, UniProt O15305); assay: Counter screen SAR assay for PMM2 inhibitors via a fluorescence intensity assay. [Related pubchem assays (depositor defined):AID1545, AID1574]
[21] = target: Peroxisome proliferator-activated receptor gamma/Nuclear receptor coactivator 2 (Homo sapiens, UniProt P37231); assay: TR-FRET dose response biochemical High Throughput Screening assay for agonists of the steroid receptor coactivator 2 (SRC-2) recruitment by the peroxisome proliferator-activated receptor gamma (PPAR gamma): non-selective agonists. [Related pubchem assays: 1297, 1032 ]; type: functional
[22] = target: Glyceraldehyde-3-phosphate dehydrogenase (Homo sapiens, UniProt P04406)
[23] = target: Alkaline phosphatase, placental type (Homo sapiens, UniProt P05187); assay: human placental alkaline phosphatase inhibition – biochemical, luminescence, confirmation (AID 1512); type: functional
[24] = target: T5, Alkaline phosphatase, tissue-nonspecific isozyme (Homo sapiens, UniProt P05186); assay: potency against alkaline phosphatase TNAP – biochemical, luminescent, dose response, SAR follow-up (AID 1056)
T5 sequence (P05186 whole entry): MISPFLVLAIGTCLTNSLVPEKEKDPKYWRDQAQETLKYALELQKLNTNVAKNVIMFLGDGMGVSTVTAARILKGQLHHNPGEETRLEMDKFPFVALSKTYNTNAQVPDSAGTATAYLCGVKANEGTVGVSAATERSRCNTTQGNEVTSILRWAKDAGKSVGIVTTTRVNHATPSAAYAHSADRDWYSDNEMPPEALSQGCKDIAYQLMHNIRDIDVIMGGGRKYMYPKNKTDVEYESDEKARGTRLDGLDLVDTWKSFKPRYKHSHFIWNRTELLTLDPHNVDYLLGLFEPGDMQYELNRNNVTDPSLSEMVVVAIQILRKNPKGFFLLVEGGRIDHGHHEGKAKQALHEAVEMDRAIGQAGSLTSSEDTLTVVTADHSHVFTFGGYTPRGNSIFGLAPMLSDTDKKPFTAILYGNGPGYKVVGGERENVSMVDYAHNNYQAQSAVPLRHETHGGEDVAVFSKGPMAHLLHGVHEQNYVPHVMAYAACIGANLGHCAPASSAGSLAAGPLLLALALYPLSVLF

Sequence of FAD-linked sulfhydryl oxidase ALR (P55789 whole entry, the tested form may be a part): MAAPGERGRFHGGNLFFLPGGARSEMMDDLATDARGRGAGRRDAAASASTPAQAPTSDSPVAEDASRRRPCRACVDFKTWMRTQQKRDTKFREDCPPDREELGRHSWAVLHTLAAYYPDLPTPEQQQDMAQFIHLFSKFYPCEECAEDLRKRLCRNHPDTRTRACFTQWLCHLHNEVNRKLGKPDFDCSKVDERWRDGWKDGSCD
T2 sequence (P98170 whole entry): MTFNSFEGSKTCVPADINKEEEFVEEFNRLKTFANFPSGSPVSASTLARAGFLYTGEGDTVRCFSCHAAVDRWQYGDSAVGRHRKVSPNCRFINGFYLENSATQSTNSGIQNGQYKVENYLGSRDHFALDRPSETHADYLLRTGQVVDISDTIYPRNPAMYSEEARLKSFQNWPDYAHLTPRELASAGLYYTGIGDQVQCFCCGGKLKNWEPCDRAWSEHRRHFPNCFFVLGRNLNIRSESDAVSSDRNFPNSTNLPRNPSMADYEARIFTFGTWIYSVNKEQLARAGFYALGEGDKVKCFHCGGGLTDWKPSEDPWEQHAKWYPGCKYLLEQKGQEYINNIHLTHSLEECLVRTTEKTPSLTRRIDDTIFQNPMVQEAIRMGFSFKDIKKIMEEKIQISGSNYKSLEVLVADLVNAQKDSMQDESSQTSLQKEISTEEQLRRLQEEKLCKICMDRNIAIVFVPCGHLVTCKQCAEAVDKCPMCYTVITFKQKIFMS
Sequence of NACHT, LRR and PYD domains-containing protein 1 (Q9C000 1-1212 limits assumed): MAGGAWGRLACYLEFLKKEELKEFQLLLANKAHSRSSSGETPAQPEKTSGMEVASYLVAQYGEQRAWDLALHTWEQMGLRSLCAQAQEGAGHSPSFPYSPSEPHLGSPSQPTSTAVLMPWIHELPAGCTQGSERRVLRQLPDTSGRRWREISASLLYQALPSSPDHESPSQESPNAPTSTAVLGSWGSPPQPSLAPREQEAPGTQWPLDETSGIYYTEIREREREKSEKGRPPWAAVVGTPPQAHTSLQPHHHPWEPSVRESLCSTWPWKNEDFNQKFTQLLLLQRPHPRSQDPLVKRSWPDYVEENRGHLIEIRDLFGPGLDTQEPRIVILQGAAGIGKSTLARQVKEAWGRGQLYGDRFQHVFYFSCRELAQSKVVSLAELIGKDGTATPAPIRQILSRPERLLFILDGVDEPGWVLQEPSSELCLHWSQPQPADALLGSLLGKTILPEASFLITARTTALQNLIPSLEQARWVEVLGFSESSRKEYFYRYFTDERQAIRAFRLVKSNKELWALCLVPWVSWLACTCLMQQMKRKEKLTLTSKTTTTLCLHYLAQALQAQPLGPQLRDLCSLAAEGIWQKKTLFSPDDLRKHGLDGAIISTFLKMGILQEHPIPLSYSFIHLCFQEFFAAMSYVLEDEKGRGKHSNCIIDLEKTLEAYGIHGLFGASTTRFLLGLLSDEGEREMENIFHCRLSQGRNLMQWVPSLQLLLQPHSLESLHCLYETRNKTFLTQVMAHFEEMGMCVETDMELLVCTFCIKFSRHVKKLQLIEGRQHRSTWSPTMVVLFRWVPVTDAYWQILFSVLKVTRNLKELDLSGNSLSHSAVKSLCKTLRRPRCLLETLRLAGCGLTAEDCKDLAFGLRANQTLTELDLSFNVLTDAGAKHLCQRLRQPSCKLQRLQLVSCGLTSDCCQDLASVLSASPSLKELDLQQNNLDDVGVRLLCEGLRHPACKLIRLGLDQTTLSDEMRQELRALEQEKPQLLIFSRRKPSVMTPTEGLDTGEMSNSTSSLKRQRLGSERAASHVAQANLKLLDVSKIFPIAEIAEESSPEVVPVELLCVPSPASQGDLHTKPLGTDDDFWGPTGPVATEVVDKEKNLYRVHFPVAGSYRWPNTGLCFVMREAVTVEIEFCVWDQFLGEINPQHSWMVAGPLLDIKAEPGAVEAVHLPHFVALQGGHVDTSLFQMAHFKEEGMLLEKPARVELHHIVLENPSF
Sequence of NACHT, LRR and PYD domains-containing protein 1 (Q9C000 1213-1473 limits assumed): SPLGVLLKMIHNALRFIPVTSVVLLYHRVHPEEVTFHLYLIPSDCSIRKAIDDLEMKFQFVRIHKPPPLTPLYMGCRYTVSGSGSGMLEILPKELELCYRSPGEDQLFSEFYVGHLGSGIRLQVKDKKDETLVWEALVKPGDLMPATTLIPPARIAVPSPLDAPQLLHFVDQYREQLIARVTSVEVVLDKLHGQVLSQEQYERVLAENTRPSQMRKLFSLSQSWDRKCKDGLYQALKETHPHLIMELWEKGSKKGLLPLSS
Sequence of Glyceraldehyde-3-phosphate dehydrogenase (P04406 whole entry): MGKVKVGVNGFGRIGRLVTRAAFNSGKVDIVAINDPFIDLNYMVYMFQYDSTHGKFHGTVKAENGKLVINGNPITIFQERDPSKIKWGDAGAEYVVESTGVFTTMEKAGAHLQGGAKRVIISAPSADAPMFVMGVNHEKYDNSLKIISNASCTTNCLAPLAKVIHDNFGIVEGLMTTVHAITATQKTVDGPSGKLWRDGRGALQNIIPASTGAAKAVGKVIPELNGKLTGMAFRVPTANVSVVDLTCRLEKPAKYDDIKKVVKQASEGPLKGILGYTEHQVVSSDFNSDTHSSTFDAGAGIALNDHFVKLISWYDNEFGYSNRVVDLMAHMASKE
Sequence of Procathepsin L (P07711 whole entry): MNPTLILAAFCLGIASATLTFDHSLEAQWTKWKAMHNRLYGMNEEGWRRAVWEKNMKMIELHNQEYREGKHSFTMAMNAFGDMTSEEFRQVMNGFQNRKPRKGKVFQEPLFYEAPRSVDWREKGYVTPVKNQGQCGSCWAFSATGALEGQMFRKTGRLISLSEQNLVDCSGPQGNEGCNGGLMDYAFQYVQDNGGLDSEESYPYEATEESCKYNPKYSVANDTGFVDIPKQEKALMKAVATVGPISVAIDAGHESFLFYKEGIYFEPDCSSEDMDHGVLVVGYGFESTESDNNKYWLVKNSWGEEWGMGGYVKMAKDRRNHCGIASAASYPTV
Sequence of DNA dC->dU-editing enzyme APOBEC-3A (P31941 whole entry): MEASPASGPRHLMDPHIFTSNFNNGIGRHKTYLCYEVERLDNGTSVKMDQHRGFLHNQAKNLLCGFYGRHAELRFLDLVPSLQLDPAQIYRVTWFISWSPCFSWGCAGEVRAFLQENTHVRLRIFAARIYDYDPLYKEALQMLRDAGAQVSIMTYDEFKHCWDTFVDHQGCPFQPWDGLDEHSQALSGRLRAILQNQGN
Sequence of Nucleotide-binding oligomerization domain-containing protein 2 (Q9HC29 whole entry, the tested form may be a part): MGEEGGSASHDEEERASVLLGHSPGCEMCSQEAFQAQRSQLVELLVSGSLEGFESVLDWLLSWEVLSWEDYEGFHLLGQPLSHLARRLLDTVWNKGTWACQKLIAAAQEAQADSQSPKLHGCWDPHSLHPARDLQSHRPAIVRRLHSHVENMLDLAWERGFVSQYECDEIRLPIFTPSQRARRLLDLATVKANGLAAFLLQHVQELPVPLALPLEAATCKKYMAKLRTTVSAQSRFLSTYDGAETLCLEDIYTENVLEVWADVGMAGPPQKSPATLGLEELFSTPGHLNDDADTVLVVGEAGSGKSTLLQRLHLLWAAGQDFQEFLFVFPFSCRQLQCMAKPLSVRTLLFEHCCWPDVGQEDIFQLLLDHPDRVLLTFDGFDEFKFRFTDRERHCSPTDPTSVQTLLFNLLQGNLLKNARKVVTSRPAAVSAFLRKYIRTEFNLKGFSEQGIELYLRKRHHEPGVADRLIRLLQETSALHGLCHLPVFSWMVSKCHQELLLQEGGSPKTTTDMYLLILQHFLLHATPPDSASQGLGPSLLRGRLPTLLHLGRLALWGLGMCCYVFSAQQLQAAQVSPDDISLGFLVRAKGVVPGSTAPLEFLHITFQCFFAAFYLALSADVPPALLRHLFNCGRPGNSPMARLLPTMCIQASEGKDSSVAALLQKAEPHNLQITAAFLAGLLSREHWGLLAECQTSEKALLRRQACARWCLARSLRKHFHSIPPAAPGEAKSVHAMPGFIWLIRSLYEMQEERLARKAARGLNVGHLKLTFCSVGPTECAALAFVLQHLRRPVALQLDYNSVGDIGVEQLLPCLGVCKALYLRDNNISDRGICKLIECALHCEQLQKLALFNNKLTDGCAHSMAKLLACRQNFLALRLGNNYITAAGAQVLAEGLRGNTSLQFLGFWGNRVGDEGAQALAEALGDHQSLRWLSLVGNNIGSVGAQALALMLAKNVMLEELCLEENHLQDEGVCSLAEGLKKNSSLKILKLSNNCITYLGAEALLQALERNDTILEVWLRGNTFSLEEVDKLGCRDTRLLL
Sequence of Phosphomannomutase 2 (O15305 whole entry): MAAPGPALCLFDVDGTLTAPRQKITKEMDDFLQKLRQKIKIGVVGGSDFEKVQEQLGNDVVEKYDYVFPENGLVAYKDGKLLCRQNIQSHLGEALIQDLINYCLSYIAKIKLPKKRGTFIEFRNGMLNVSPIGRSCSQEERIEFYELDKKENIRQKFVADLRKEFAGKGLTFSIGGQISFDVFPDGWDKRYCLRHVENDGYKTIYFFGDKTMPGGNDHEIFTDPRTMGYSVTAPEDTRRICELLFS
Sequence of Alkaline phosphatase, placental type (P05187 whole entry): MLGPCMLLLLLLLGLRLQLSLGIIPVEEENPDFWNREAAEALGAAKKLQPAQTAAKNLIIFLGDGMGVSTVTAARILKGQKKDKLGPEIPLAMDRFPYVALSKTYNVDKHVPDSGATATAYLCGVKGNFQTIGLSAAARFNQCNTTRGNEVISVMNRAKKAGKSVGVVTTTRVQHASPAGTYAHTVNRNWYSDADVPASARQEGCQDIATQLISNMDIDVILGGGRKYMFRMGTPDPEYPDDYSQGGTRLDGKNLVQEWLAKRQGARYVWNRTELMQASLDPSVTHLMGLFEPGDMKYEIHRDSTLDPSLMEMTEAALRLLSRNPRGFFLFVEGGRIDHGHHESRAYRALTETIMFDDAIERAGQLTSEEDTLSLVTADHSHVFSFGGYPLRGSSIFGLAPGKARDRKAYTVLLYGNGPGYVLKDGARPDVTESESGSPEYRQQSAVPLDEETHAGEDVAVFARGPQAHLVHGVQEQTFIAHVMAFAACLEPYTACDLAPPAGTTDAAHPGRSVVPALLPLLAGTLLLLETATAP

Structure (SMILES): Nc1ccc(Oc2cccc(Oc3ccc(N)cc3)c2)cc1
- AC50 [1]: 1.1 µM (active)
- EC50 (HEK293 [2]): 5.94 µM (active)
- IC50 (HEK293 [3]): 3.05 µM (active)
- IC50 (HEK293 [4]): 1.61 µM (active)
- IC50 (HEK293 [5]): > 20 µM (inactive)
- AC50 [6]: 0.677 µM (active)
- IC50 [7]: 15.3 µM (active)
- EC50 [8]: 1.85 µM (active)
- EC50 [9]: > 38 µM (not active)
- EC50 [10]: > 150 µM (inactive)
- IC50 (HEK293 [11]): 19.9 µM (active)
- IC50 (Saccharomyces cerevisiae): 10.2 µM (active)

Structure (SMILES): S=c1[nH]nc(-c2ccco2)n1C1CCCCC1
- IC50 [12]: > 100 µM (inactive)
- AC50 [6]: 5.64 µM (active)
- IC50 [13]: 4.08 µM (active)

Structure (SMILES): Sc1n[nH]c(-c2cccc(Cl)c2)n1
- IC50 [18]: 1.94 µM (active)
- IC50 (Leucine aminopeptidase): 3.56 µM (active)
- EC50 [19]: > 79.4 µM (inactive)
- AC50 [6]: 0.097 µM (active)
- IC50 (Aspartyl aminopeptidase): 15.6 µM (not active)
- EC50 [20]: > 79.4 µM (not active)
- IC50 (Procathepsin L): > 59.6 µM (not active)
- IC50 (Phosphomannomutase 2): > 100 µM (inactive)
- EC50 [21]: > 79.4 µM (not active)

More lines, now with the values ahead:

- IC50 [14]: > 100 µM (not active)
- AC50 [1]: > 350 µM (inactive)
- AC50 [15]: > 350 µM (inactive)
- AC50 [16]: > 350 µM (inactive)
- IC50 [17]: > 100 µM (inactive)
Structure (SMILES): Cc1cc2oc(=O)cc(C)c2cc1NC(=O)CCC(=O)O

- IC50 [22]: > 100 µM (not active)
- IC50 [23]: > 100 µM (inactive)
- IC50 [24]: > 100 µM (inactive)
Structure (SMILES): CSc1nnc(NC(=O)c2cc(F)c(F)c(F)c2F)[nH]1
